# Measurements published in patent US12077503B2, “Substituted cyclic amides and their use as herbicides” (FMC CORPORATION, priority 2015, dated 2024).
# Read-outs that look alike come from different tables or passages of the source.
# Columns and labels:
# Format in all cases: in vivo
# [1] = test system: ryegrass, Italian (Italian ryegrass, Lolium multiflorum); assay: Test A preemergence; conditions: Lolium multiflorum, pre-emergence, 240 h; for pest or weed control at 125 g/ha: 125 g ai/ha; for pest or weed control at 500 g/ha: 500 g ai/ha
# Method in brief: (§1)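 Visual injury scores from 0, no effect, to 100, complete control, were assigned versus untreated controls roughly 10 d after treatment in the greenhouse. Test chemicals, formulated with surfactant in a non-phytotoxic solvent, were applied to planted seeds as a preemergence soil spray or postemergence to one- to two-leaf plants 2 to 10 cm tall, in loam–sand soil.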
# [2] = test system: barnyardgrass (Echinochloa crus-galli); assay: Test A preemergence; conditions: Echinochloa crus-galli, pre-emergence, 240 h; for pest or weed control at 125 g/ha: 125 g ai/ha; for pest or weed control at 500 g/ha: 500 g ai/ha
# Method in brief: as §1
# Kochia (Kochia scoparia) [3] = assay: Test A preemergence; conditions: Bassia scoparia, pre-emergence, 240 h; for pest or weed control at 125 g/ha: 125 g ai/ha; for pest or weed control at 500 g/ha: 500 g ai/ha
# Method in brief: as §1
# [4] = test system: ragweed (common ragweed, Ambrosia elatior); assay: Test A preemergence; conditions: Ambrosia artemisiifolia, pre-emergence, 240 h; for pest or weed control at 125 g/ha: 125 g ai/ha; for pest or weed control at 500 g/ha: 500 g ai/ha
# Method in brief: as §1
# [5] = test system: pigweed (Amaranthus retroflexus); assay: Test A preemergence; conditions: Amaranthus retroflexus, pre-emergence, 240 h; for pest or weed control at 125 g/ha: 125 g ai/ha; for pest or weed control at 500 g/ha: 500 g ai/ha
# [6] = test system: wheat (Triticum aestivum); assay: Test A postemergence; conditions: Triticum aestivum, post-emergence, 240 h, 125 g ai/ha, postemergence
# Method in brief: as §1
# [7] = test system: ryegrass, Italian (Italian ryegrass, Lolium multiflorum); assay: Test A postemergence; conditions: Lolium multiflorum, post-emergence, 240 h, 125 g ai/ha, postemergence
# Method in brief: as §1
# [8] = test system: barnyardgrass (Echinochloa crus-galli); assay: Test A postemergence; conditions: Echinochloa crus-galli, post-emergence, 240 h, postemergence; for pest or weed control at 125 g/ha: 125 g ai/ha
# Method in brief: as §1
# [9] = test system: giant foxtail (Setaria faberii); assay: Test A postemergence; conditions: Setaria faberi, post-emergence, 240 h, postemergence; for pest or weed control at 125 g/ha: 125 g ai/ha
# Method in brief: as §1
# Kochia (Kochia scoparia) [10] = assay: Test A postemergence; conditions: Bassia scoparia, post-emergence, 240 h, postemergence; for pest or weed control at 125 g/ha: 125 g ai/ha
# Method in brief: as §1
# corn (Zea mays) = assay: Test A postemergence; conditions: Zea mays, post-emergence, 240 h, postemergence; for plant injury at 125 g/ha: 125 g ai/ha
# Method in brief: as §1
# [11] = test system: ragweed (common ragweed, Ambrosia elatior); assay: Test A postemergence; conditions: Ambrosia artemisiifolia, post-emergence, 240 h, 125 g ai/ha, postemergence
# Method in brief: as §1
# [12] = test system: pigweed (Amaranthus retroflexus); assay: Test A postemergence; conditions: Amaranthus retroflexus, post-emergence, 240 h, 125 g ai/ha, postemergence
# Method in brief: as §1
# [13] = test system: Galium (catchweed bedstraw, Galium aparine); assay: Test A postemergence; conditions: Galium, post-emergence, 240 h, postemergence; for pest or weed control at 125 g/ha: 125 g ai/ha
# Method in brief: as §1
structure (smiles),measurement,setting,value
Cc1cc([C@H]2CNC(=O)[C@@H]2C(=O)Nc2ccccc2Cl)ccc1C(F)(F)F [Compound 1044],pest or weed control at 125 g/ha,"[1]; Preemergence, visual injury rating after approximately 10 d, read-out: Ryegrass, Italian plant response rating (0 to 100 scale, 0 is no effect, 100 is complete control)",0%
same,pest or weed control at 500 g/ha,"[1]; preemergence, visual injury rating about 10 d after treatment, 0 to 100 scale (0 no effect, 100 complete control), read-out: Ryegrass, Italian plant response rating",50%
same,pest or weed control at 125 g/ha,"[2]; Preemergence, visual injury rating after approximately 10 d, read-out: Barnyardgrass plant response rating (0 to 100 scale, 0 is no effect, 100 is complete control)",90%
same,pest or weed control at 500 g/ha,"[2]; preemergence, visual injury rating about 10 d after treatment, 0 to 100 scale (0 no effect, 100 complete control), read-out: Barnyardgrass plant response rating",90%
same,pest or weed control at 125 g/ha,"Kochia (Kochia scoparia) [3]; Preemergence, visual injury rating after approximately 10 d, read-out: Kochia plant response rating (0 to 100 scale, 0 is no effect, 100 is complete control)",0%
same,pest or weed control at 500 g/ha,"Kochia (Kochia scoparia) [3]; preemergence, visual injury rating about 10 d after treatment, 0 to 100 scale (0 no effect, 100 complete control), read-out: Kochia plant response rating",50%
same,pest or weed control at 125 g/ha,"[4]; Preemergence, visual injury rating after approximately 10 d, read-out: Ragweed plant response rating (0 to 100 scale, 0 is no effect, 100 is complete control)",0%
same,pest or weed control at 500 g/ha,"[4]; preemergence, visual injury rating about 10 d after treatment, 0 to 100 scale (0 no effect, 100 complete control), read-out: Ragweed plant response rating",30%
same,pest or weed control at 125 g/ha,"[5]; Preemergence, visual injury rating after approximately 10 d, read-out: Pigweed plant response rating (0 to 100 scale, 0 is no effect, 100 is complete control)",0%
same,pest or weed control at 500 g/ha,"[5]; preemergence, visual injury rating about 10 d after treatment, 0 to 100 scale (0 no effect, 100 complete control), read-out: Pigweed plant response rating",30%
same,plant injury at 125 g/ha,"[6]; visual injury on 0 to 100 scale (0 no effect, 100 complete control), approx. 10 d, read-out: Wheat plant response rating",0%
same,pest or weed control at 125 g/ha,"[7]; visual injury on 0 to 100 scale (0 no effect, 100 complete control), approx. 10 d, read-out: Ryegrass, Italian plant response rating",0%
same,pest or weed control at 125 g/ha,"[8]; visual injury on 0 to 100 scale (0 no effect, 100 complete control), approx. 10 d, read-out: Barnyardgrass plant response rating",70%
same,pest or weed control at 500 g/ha,"[8]; 500 g ai/ha, visual injury, 0 to 100 scale (0 no effect, 100 complete control), approx. 10 d, read-out: Plant response rating, Barnyardgrass",80%
same,pest or weed control at 125 g/ha,"[9]; visual injury on 0 to 100 scale (0 no effect, 100 complete control), approx. 10 d, read-out: Foxtail, Giant plant response rating",60%
same,pest or weed control at 500 g/ha,"[9]; 500 g ai/ha, visual injury, 0 to 100 scale (0 no effect, 100 complete control), approx. 10 d, read-out: Plant response rating, Foxtail, Giant",90%
same,pest or weed control at 125 g/ha,"Kochia (Kochia scoparia) [10]; visual injury on 0 to 100 scale (0 no effect, 100 complete control), approx. 10 d, read-out: Kochia plant response rating",0%
same,pest or weed control at 500 g/ha,"Kochia (Kochia scoparia) [10]; 500 g ai/ha, visual injury, 0 to 100 scale (0 no effect, 100 complete control), approx. 10 d, read-out: Plant response rating, Kochia",50%
same,plant injury at 125 g/ha,"corn (Zea mays); visual injury on 0 to 100 scale (0 no effect, 100 complete control), approx. 10 d, read-out: Corn plant response rating",0%
same,"Corn plant response rating (crop injury, 0 = no effect, 100 = complete kill) at 500 g/ha","corn (Zea mays); 500 g ai/ha, visual injury, 0 to 100 scale (0 no effect, 100 complete control), approx. 10 d",50%
same,pest or weed control at 125 g/ha,"[11]; visual injury on 0 to 100 scale (0 no effect, 100 complete control), approx. 10 d, read-out: Ragweed plant response rating",20%
same,pest or weed control at 125 g/ha,"[12]; visual injury on 0 to 100 scale (0 no effect, 100 complete control), approx. 10 d, read-out: Pigweed plant response rating",30%
same,pest or weed control at 125 g/ha,"[13]; visual injury on 0 to 100 scale (0 no effect, 100 complete control), approx. 10 d, read-out: Galium plant response rating",40%
same,pest or weed control at 500 g/ha,"[13]; 500 g ai/ha, visual injury, 0 to 100 scale (0 no effect, 100 complete control), approx. 10 d, read-out: Plant response rating, Galium",60%
O=C1NC[C@H](c2cc(F)c(C(F)(F)F)c(F)c2)[C@H]1C(=O)Nc1ccccc1F [Compound 837],pest or weed control at 125 g/ha,"[1]; preemergence, 0 to 100 scale where 0 is no effect and 100 is complete control, read-out: Ryegrass, Italian plant response rating",50%
same,pest or weed control at 500 g/ha,"[1]; Preemergence, visual injury vs untreated controls after approximately 10 d, read-out: Ryegrass, Italian plant response rating (0 to 100 scale where 0 is no effect and 100 is complete control)",70%
same,pest or weed control at 125 g/ha,"[2]; preemergence, 0 to 100 scale where 0 is no effect and 100 is complete control, read-out: Barnyardgrass plant response rating",90%
same,pest or weed control at 500 g/ha,"[2]; Preemergence, visual injury vs untreated controls after approximately 10 d, read-out: Barnyardgrass plant response rating (0 to 100 scale where 0 is no effect and 100 is complete control)",90%
same,pest or weed control at 125 g/ha,"Kochia (Kochia scoparia) [3]; preemergence, 0 to 100 scale where 0 is no effect and 100 is complete control, read-out: Kochia plant response rating",90%
same,pest or weed control at 500 g/ha,"Kochia (Kochia scoparia) [3]; Preemergence, visual injury vs untreated controls after approximately 10 d, read-out: Kochia plant response rating (0 to 100 scale where 0 is no effect and 100 is complete control)",90%
same,pest or weed control at 125 g/ha,"[4]; preemergence, 0 to 100 scale where 0 is no effect and 100 is complete control, read-out: Ragweed plant response rating",70%
same,pest or weed control at 500 g/ha,"[4]; Preemergence, visual injury vs untreated controls after approximately 10 d, read-out: Ragweed plant response rating (0 to 100 scale where 0 is no effect and 100 is complete control)",70%
same,pest or weed control at 125 g/ha,"[5]; preemergence, 0 to 100 scale where 0 is no effect and 100 is complete control, read-out: Pigweed plant response rating",20%
same,pest or weed control at 500 g/ha,"[5]; Preemergence, visual injury vs untreated controls after approximately 10 d, read-out: Pigweed plant response rating (0 to 100 scale where 0 is no effect and 100 is complete control)",80%
same,plant injury at 125 g/ha,"[6]; visual injury rating after approximately 10 d, read-out: Wheat plant response rating (0 to 100 scale, 0 no effect, 100 complete control)",0%
same,pest or weed control at 125 g/ha,"[7]; visual injury rating after approximately 10 d, read-out: Ryegrass, Italian plant response rating (0 to 100 scale, 0 no effect, 100 complete control)",50%
same,pest or weed control at 125 g/ha,"[8]; visual injury rating after approximately 10 d, read-out: Barnyardgrass plant response rating (0 to 100 scale, 0 no effect, 100 complete control)",90%
same,pest or weed control at 125 g/ha,"[9]; visual injury rating after approximately 10 d, read-out: Foxtail, Giant plant response rating (0 to 100 scale, 0 no effect, 100 complete control)",90%
same,pest or weed control at 125 g/ha,"Kochia (Kochia scoparia) [10]; visual injury rating after approximately 10 d, read-out: Kochia plant response rating (0 to 100 scale, 0 no effect, 100 complete control)",20%
same,plant injury at 125 g/ha,"corn (Zea mays); visual injury rating after approximately 10 d, read-out: Corn plant response rating (0 to 100 scale, 0 no effect, 100 complete control)",60%
same,pest or weed control at 125 g/ha,"[11]; visual injury rating after approximately 10 d, read-out: Ragweed plant response rating (0 to 100 scale, 0 no effect, 100 complete control)",10%
same,pest or weed control at 125 g/ha,"[12]; visual injury rating after approximately 10 d, read-out: Pigweed plant response rating (0 to 100 scale, 0 no effect, 100 complete control)",30%
same,pest or weed control at 125 g/ha,"[13]; visual injury rating after approximately 10 d, read-out: Galium plant response rating (0 to 100 scale, 0 no effect, 100 complete control)",50%
